In ChEMBL document CHEMBL3639094, “Organic compounds” (2014):

The molecules below were run against T1, Cholesteryl ester transfer protein (Homo sapiens, UniProt P11597) (assay: In Vitro Assay: CETP Activity Kit (#RB-RPAK) was purchased from Roar Biochemical, Inc. (New York, N.Y., USA). To each well of a 96-well NBS half-area plate (costar #3686), 1.2 ng/well of the donor solution, 1 uL of the acceptor solution and 5 uL compound solution diluted in 100% DMSO were added in a 38 uL of buffer containing 10 mM Tris, 150 mM NaCl and 2 mM EDTA, pH 7.4. Then, the plate was sealed with Themowell Sealers (costar #6524) and followed by a mixing on a plate shaker by MICROPLATE MIXER MPX-96 (IWAKI) at power 3 for 10 sec at room temperature. After 10-min incubation at 37C., the reaction was started by adding 5 uL of rhCETP solution (Cardiovascular Target, New York, N.Y., USA) and mixed on the plate shaker for 10 sec, then the fluorescence intensity at 0 min was measured by a ARVO SX (Perkin Elmerr, USA) at excitation wavelength of 465 nm and emission wavelength of 535 nm. After 120 min-incubation at 37C., fluorescence intensity was measured again.).
T1 sequence (P11597 whole entry): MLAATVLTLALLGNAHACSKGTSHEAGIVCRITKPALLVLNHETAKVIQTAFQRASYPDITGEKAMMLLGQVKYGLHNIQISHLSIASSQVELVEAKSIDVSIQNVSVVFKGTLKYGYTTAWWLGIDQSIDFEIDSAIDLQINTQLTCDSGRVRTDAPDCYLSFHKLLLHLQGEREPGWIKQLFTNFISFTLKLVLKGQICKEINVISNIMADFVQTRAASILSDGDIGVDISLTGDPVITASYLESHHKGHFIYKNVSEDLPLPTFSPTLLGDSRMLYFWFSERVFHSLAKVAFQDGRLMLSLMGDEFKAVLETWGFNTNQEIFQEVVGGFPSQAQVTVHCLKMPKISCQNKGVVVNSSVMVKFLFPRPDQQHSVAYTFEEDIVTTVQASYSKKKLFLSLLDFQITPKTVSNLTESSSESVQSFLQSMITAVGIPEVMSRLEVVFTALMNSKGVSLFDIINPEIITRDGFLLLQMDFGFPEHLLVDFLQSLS
Molecule `CC[C@@H]1C[C@H](N(Cc2cc(C(F)(F)F)cc(C(F)(F)F)c2)c2ncc(-c3cnn(C)c3)cn2)CN1C(=O)OCC1(C)COC1` has an IC50 of 53 nM.
Molecule `CC[C@@H]1C[C@H](N(Cc2cc(C(F)(F)F)cc(C(F)(F)F)c2)c2ncc(-c3cnn(C)c3)cn2)CN1c1nc(N2CCC(C(=O)O)CC2)ncc1Cl` has an IC50 of 77 nM.
`CC[C@@H]1C[C@H](N(Cc2cc(C(F)(F)F)cc(C(F)(F)F)c2)c2ncc(-c3cnn(C)c3)cn2)CN1C(=O)OC(C)C` gave an IC50 of 23 nM.
`CC[C@@H]1C[C@H](N(Cc2cc(C(F)(F)F)cc(C(F)(F)F)c2)c2ncc(N3CCOCC3)cn2)CN1c1nc(N2CCC(C(=O)O)CC2)ncc1Cl` was tested, and the IC50 was 130 nM.
